Measurements taken from US11364218B2, “Method of treating or preventing mood disorders, mental disorders, and/or chronic fatigue syndrome” (priority 2016, dated 2022).

Experiments:
mouse = experiment: forced swimming test in mouse (antidepressant action); format: in vivo; details: for Immobile time average value / non-moving time: male ICR mice; for Immobile time average value: single forced oral dose 1 h before test (methocarbamol 200 mg/kg; etizolam 0.033 mg/kg), non-moving time in last 7 of 10 min, n=10; for non-moving time: single oral dose 1 h before test (methocarbamol 200 mg/kg; etizolam 0.033 mg/kg), last 7 of 10 min, medium control 230.8 seconds
Excerpt: The antidepressant action of a test substance may be evaluated using a “forced swimming method” in a mouse model.
The forced swimming test in mouse models is an animal experimental method for confirming the antidepressant activity proposed by Porsalt (Arch. Int, pharmacydn. 229.327-336 (1977)).
A mouse placed into a pool indicates either an active state or a non-moving state. Decreases in the non-moving state of the mouse is used as an index to confirm the antidepressant action of a pharmaceutical composition.
The pool used for forced swimming was a glass cylindrical container 30 cm in height and 16 cm in inner diameter filled at a water depth of 20 cm at 25° c.
One hour before the test, 10 mL/kg of the above prepared methocarbamol aqueous solution was administered to the mouse only once (200 mg/kg in methocarbamol conversion).
The administration route was a forced oral administration using an installed mice oral administration sonde made by FUCHIGAMI with a syringe for injection made by TERUMO.
After one hour of forced administration, the mouse was placed in the forced swimming pool described above and left for 10 minutes.
The first three minutes after entering were considered a conditioning period, and the mouse's non-moving time in the remaining 7 minutes was measured.
“Non-motion” was defined by the mouse not moving the anterior limb and the posterior limb, and by a state in which the upper side of the neck is lifted from the water surface and floats.
The “non-moving time” was the sum of “non-motion” time.
The test was repeated 10 times for each mouse, and an average value was calculated.
An etizolam aqueous solution was used in place of a methocarbamol aqueous solution. The same test as described above (1) was performed, but with the administration amount converted to etizolam usage at 0.0333 mg/kg.
Distilled water not containing a pharmaceutical was used in place of the methocarbamol aqueous solution in the same manner as described above (1).
The average non-moving time values of the medium control group (n=10), the examples, and comparative examples (n=10) were compared with each other.

depression patients = experiment: Test for administration to depression patients; format: in vivo, human
Procedure: Test for administration to depression patients (embodiment 1) A 500 mg bolaxin tablet (manufactured by Ying-Yuan chemical pharmaceutical co. ltd.) and 500 mg-containing (methocarbamol content 76% mass) were prepared. A subject suffering from depression for two or more years was selected. A pharmaceutical composition was administered to the patient three times a day, and the administration was continued for one week. The dose on the initial day was 3.0 to 4.5 g/day (converted to methocarbamol). After observing the patient's state, it was increased to 6.0 g/day (converted to methocarbamol). The regular drug in addition to the tested pharmaceutical composition was continuously taken, but drinking was prohibited during the test. After one week, a potential depression improvement effect before and after administration was evaluated. The evaluation investigated a significant difference in two-term judgment of two related groups. The evaluation was judged based on a declaration of whether the subjects felt an improvement in thinking, desires, and fatigue.

[1] = N=5 depression patients, bolaxin tablets three times a day for one week, 3.0 to 4.5 g/day increased to 6.0 g/day as methocarbamol

Row | Structure (SMILES) | Immobile time average value (mouse) [s] | non-moving time (mouse) [s] | antidepressant effect compared with etizolam group (forced swimming) (mouse; methocarbamol 200 mg/kg oral vs etizolam 0.033 mg/kg oral) | Effective (subjects declaring improvement in thinking, desires and fatigue) (depression patients; [1]) [persons] | No effect (depression patients; [1]) [persons] | depression treatment effect (depression patients; depression patients, one week of administration)
1 | CCc1cc2c(s1)-n1c(C)nnc1CN=C2c1ccccc1Cl [Reagent E-1, Etizolam] | 107.3 | 107.3 | – | – | – | –
2 | COc1ccccc1OCC(O)COC(N)=O (centres unmarked) [Reagent M-1, Methocarbamol] | 157.7 | 157.7 | essentially the same effect as the etizolam administration group | 5 | 0 | beneficial depression treatment effect
